Measured values: PubChem BioAssay AID248 (DTP/NCI, 2004)
Where “and” joins values, the source holds several entries; their conditions need not be identical. Equal values may be shown once. Inconclusive results and toxic doses are left out. Rule as the data show it: active = T/C of 150% or more; inactive = T/C below 125%. Square brackets hold non-standard residues; d marks the D form. Peptide text beside a SMILES is read from it. ξ: configuration not given here. ξK = NCCCCC(N)C(=O)O

System: L1210 leukemia ip in BDF1 mice, survival T/C
Assay: NCI In Vivo Anticancer Drug Screen. Data for tumor model L1210 Leukemia (intraperitoneal) in B6D2F1 (BDF1) mice
Conditions: endpoint: mean survival time, higher = longer survival
How it was run: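 Survival endpoint. Drug-treated group vs vehicle group, expressed as T divided by C. Tumor passaged by transplantation.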

[1] = dose: 100.0 mg/kg/injection, schedule: Q01DX001 (ip), vehicle: saline
[2] = dose: 200.0 mg/kg/injection, schedule: Q01DX001 (ip), vehicle: saline
[3] = dose: 400.0 mg/kg/injection, schedule: Q01DX001 (ip), vehicle: saline
[4] = dose: 100.0 mg/kg/injection, schedule: Q01DX009 (ip), vehicle: Klucel (hydroxypropylcellulose) (HPC)
[5] = dose: 100.0 mg/kg/injection, schedule: Q04DX003 (ip), vehicle: saline with Tween-80
[6] = dose: 200.0 mg/kg/injection, schedule: Q01DX009 (ip), vehicle: Klucel (hydroxypropylcellulose) (HPC)
[7] = dose: 200.0 mg/kg/injection, schedule: Q04DX003 (ip), vehicle: saline with Tween-80
[8] = dose: 400.0 mg/kg/injection, schedule: Q04DX003 (ip), vehicle: saline with Tween-80
[9] = dose: 100.0 mg/kg/injection, schedule: Q04DX003 (ip), vehicle: Klucel (hydroxypropylcellulose) (HPC)
[10] = dose: 200.0 mg/kg/injection, schedule: Q04DX003 (ip), vehicle: Klucel (hydroxypropylcellulose) (HPC)
[11] = dose: 400.0 mg/kg/injection, schedule: Q04DX003 (ip), vehicle: Klucel (hydroxypropylcellulose) (HPC)
[12] = dose: 100.0 mg/kg/injection, schedule: Q04DX002 (ip), vehicle: saline with Tween-80
[13] = dose: 200.0 mg/kg/injection, schedule: Q04DX002 (ip), vehicle: saline with Tween-80
[14] = dose: 400.0 mg/kg/injection, schedule: Q04DX002 (ip), vehicle: saline with Tween-80
[15] = dose: 100.0 mg/kg/injection, schedule: Q04DX003 (ip), vehicle: other
[16] = dose: 200.0 mg/kg/injection, schedule: Q04DX003 (ip), vehicle: other
[17] = dose: 400.0 mg/kg/injection, schedule: Q04DX003 (ip), vehicle: other

Measured: T/C

Oc1ccccc1C=NCCN1CC1.Oc1ccccc1C=NCCN1CC1.[Co+2]
inactive: dose: 20.0 mg/kg/injection, schedule: Q04DX002 (ip), vehicle: saline + alcohol 102 % of control | dose: 40.0 mg/kg/injection, schedule: Q04DX002 (ip), vehicle: saline + alcohol 106 % of control | dose: 80.0 mg/kg/injection, schedule: Q04DX002 (ip), vehicle: saline + alcohol 98 % of control

C=COC(=O)NC(Cc1ccccc1)C(=O)O (configuration not stated)
inactive: [1] 97 % of control | [2] 89 % of control

Nc1ncnc2c1ncn2C1OC(CO)CC1O (configuration not stated)
inactive: dose: 37.0 mg/kg/injection, schedule: Q01DX Z (ip), vehicle: carboxymethylcellulose (CMC) 114 % of control | dose: 50.0 mg/kg/injection, schedule: Q01DX001 (ip), vehicle: saline 111 % of control | dose: 75.0 mg/kg/injection, schedule: Q01DX Z (ip), vehicle: carboxymethylcellulose (CMC) 111 % of control | [1] 111 % of control | dose: 150.0 mg/kg/injection, schedule: Q01DX Z (ip), vehicle: carboxymethylcellulose (CMC) 114 % of control | [2] 115 % of control | dose: 300.0 mg/kg/injection, schedule: Q01DX Z (ip), vehicle: carboxymethylcellulose (CMC) 114 % of control and 115 % of control | [3] 123 % of control

Cc1ccc([N+](=O)[O-])cc1NC(=O)NCCO
inactive: dose: 100.0 mg/kg/injection, schedule: Q04DX003 (ip), vehicle: saline 106 % of control | dose: 200.0 mg/kg/injection, schedule: Q04DX003 (ip), vehicle: saline 106 % of control | dose: 400.0 mg/kg/injection, schedule: Q04DX003 (ip), vehicle: saline 103 % of control

CC(=O)Nc1nn[nH]n1
inactive: dose: 100.0 mg/kg/injection, schedule: Q01DX001 (ip), vehicle: other 93 % of control | [4] 90 % of control | [5] 94 % of control | dose: 200.0 mg/kg/injection, schedule: Q01DX001 (ip), vehicle: other 96 % of control | [6] 91 % of control | [7] 94 % of control | dose: 400.0 mg/kg/injection, schedule: Q01DX001 (ip), vehicle: other 96 % of control | [8] 90 % of control

COc1cccc(C)c1NC(=O)NCCCl
inactive: [9] 100 % of control | [10] 94 % of control | [11] 94 % of control

c1ccc2c(c1)NC(OC1CCCCC1)S2 (configuration not stated)
inactive: [12] 101 % of control | [13] 90 % of control | [14] 90 % of control

CCCC(CCC)NC(CC)COC(=O)c1ccc(N)cc1 (configuration not stated)
inactive: dose: 75.0 mg/kg/injection, schedule: Q01DX001 (ip), vehicle: other 97 % of control

COC(=O)/C=C/c1cccnc1
inactive: dose: 50.0 mg/kg/injection, schedule: Q04DX003 (ip), vehicle: Klucel (hydroxypropylcellulose) (HPC) 103 % of control | [9] 93 % of control | [10] 103 % of control

C=CC(O)c1ccccc1 (configuration not stated)
inactive: dose: 75.0 mg/kg/injection, schedule: Q01DX009 (ip), vehicle: saline with Tween-80 90 % of control | dose: 75.0 mg/kg/injection, schedule: Q04DX003 (ip), vehicle: saline with Tween-80 89 % of control | dose: 150.0 mg/kg/injection, schedule: Q01DX009 (ip), vehicle: saline with Tween-80 87 % of control | dose: 150.0 mg/kg/injection, schedule: Q04DX003 (ip), vehicle: saline with Tween-80 109 % of control | dose: 300.0 mg/kg/injection, schedule: Q01DX009 (ip), vehicle: saline with Tween-80 88 % of control | dose: 300.0 mg/kg/injection, schedule: Q04DX003 (ip), vehicle: saline with Tween-80 105 % of control

O=[N+]([O-])c1cccc([I+]c2cccc([N+](=O)[O-])c2)c1
inactive: [12] 100 % of control | [9] 96 % of control | [13] 92 % of control | [10] 104 % of control | [14] 100 % of control | [11] 91 % of control

CC(=O)NC(C)(S)C(=O)O (configuration not stated)
inactive: [1] 103 % of control | [2] 96 % of control | [3] 107 % of control

COc1ccccc1/C=N/N=C(N)N
inactive: dose: 15.5 mg/kg/injection, schedule: Q01DX Z (ip), vehicle: other 97 % of control | dose: 31.0 mg/kg/injection, schedule: Q01DX Z (ip), vehicle: other 96 % of control

CCC[CH2][Hg][Cl]
inactive: dose: 6.25 mg/kg/injection, schedule: Q01DX009 (ip), vehicle: saline with Tween-80 94 % of control | dose: 6.25 mg/kg/injection, schedule: Q04DX003 (ip), vehicle: Klucel (hydroxypropylcellulose) (HPC) 93 % of control | dose: 12.5 mg/kg/injection, schedule: Q01DX009 (ip), vehicle: saline with Tween-80 92 % of control | dose: 12.5 mg/kg/injection, schedule: Q04DX003 (ip), vehicle: Klucel (hydroxypropylcellulose) (HPC) 92 % of control | dose: 25.0 mg/kg/injection, schedule: Q04DX003 (ip), vehicle: Klucel (hydroxypropylcellulose) (HPC) 88 % of control

CCOc1ccc(-n2c(=O)c(N=Nc3ccccc3OC)c(O)n(-c3ccccc3OC)c2=S)cc1
inactive: dose: 50.0 mg/kg/injection, schedule: Q01DX001 (ip), vehicle: Klucel (hydroxypropylcellulose) (HPC) 91 % of control | dose: 100.0 mg/kg/injection, schedule: Q01DX001 (ip), vehicle: Klucel (hydroxypropylcellulose) (HPC) 100 % of control | dose: 200.0 mg/kg/injection, schedule: Q01DX001 (ip), vehicle: Klucel (hydroxypropylcellulose) (HPC) 87 % of control

COC(=O)C1CCCC(=O)C1C(=O)OC (configuration not stated)
inactive: [15] 106 % of control | [16] 97 % of control | [17] 104 % of control

Cc1ccnc(NS(=O)(=O)c2ccc(N=Nc3cc(N=Nc4ccccc4)c(N)nc3N)cc2)n1
inactive: dose: 100.0 mg/kg/injection, schedule: Q01DX001 (ip), vehicle: carboxymethylcellulose (CMC) 105 % of control | dose: 200.0 mg/kg/injection, schedule: Q01DX001 (ip), vehicle: carboxymethylcellulose (CMC) 102 % of control

CNc1ccc(OC)cc1
inactive: dose: 100.0 mg/kg/injection, schedule: Q01DX009 (ip), vehicle: other 95 % of control | [15] 101 % of control | dose: 200.0 mg/kg/injection, schedule: Q01DX009 (ip), vehicle: other 111 % of control | [16] 101 % of control | dose: 400.0 mg/kg/injection, schedule: Q01DX009 (ip), vehicle: other 124 % of control | [17] 104 % of control

CCN(CCO)CCNc1ccc(CO)c2sc3cc(Cl)ccc3c(=O)c12
inactive: dose: 50.0 mg/kg/injection, schedule: Q01DX009 (ip), vehicle: Klucel (hydroxypropylcellulose) (HPC) 91 % of control | [4] 96 % of control | [6] 91 % of control

NCCCCC(NC(=O)CN)C(=O)O (configuration not stated) (H-Gly-[ξK]-OH)
inactive: [1] 101 % of control | [2] 103 % of control | [3] 95 % of control

CN(C)c1ccc(/C=C/c2cc(N(C)C)nc3ccccc23)cc1
inactive: dose: 25.0 mg/kg/injection, schedule: Q01DX015 (ip), vehicle: carboxymethylcellulose (CMC) 109 % of control | dose: 50.0 mg/kg/injection, schedule: Q01DX015 (ip), vehicle: carboxymethylcellulose (CMC) 105 % of control | dose: 75.0 mg/kg/injection, schedule: Q01DX015 (ip), vehicle: carboxymethylcellulose (CMC) 101 % of control

C/C=C/S(=O)(=O)c1ccccc1
inactive: dose: 75.0 mg/kg/injection, schedule: Q01DX001 (ip), vehicle: carboxymethylcellulose (CMC) 100 % of control

CCO/C=C1\SC(=S)N(c2ccccc2C)C1=O
inactive: [9] 98 % of control | [5] 100 % of control | [6] 91 % of control | [10] 109 % of control | [7] 100 % of control | [11] 104 % of control | [8] 91 % of control

CC1=C(N)/C(=C(/C)C#N)OC1=O
inactive: dose: 100.0 mg/kg/injection, schedule: Q01DX001 (ip), vehicle: saline with Tween-80 92 % of control | dose: 200.0 mg/kg/injection, schedule: Q01DX001 (ip), vehicle: saline with Tween-80 100 % of control | dose: 400.0 mg/kg/injection, schedule: Q01DX001 (ip), vehicle: saline with Tween-80 92 % of control

COc1ccccc1NC(=O)NCCN1CCCC1
inactive: [4] 98 % of control | [6] 98 % of control

COc1ccc(I)c([N+](=O)[O-])c1
inactive: [4] 96 % of control | [9] 100 % of control | [6] 96 % of control | [10] 94 % of control | [11] 103 % of control

CCCC#CC(=O)OCCCC
inactive: [12] 93 % of control | [13] 90 % of control | [14] 90 % of control

CN(CC(O)CN)c1ccccc1 (configuration not stated)
inactive: [1] 102 % of control | [2] 94 % of control
